Source: patent publication US20240208908A1, “CRYSTAL FORM OF PYRIDINE NITROGEN OXIDE COMPOUND AND USE THEREOF” (SHANGHAI JEMINCARE PHARMACEUTICAL CO., LTD, priority 2021, published 2024)

Experiments:
[1] = Suspension competition test of crystal forms; type: physicochemical
Method: In order to further study the transformation relationship between the free anhydrous crystal form and the hydrate crystal form, a suspension competition test was carried out on the anhydrous crystal form B/G and the hydrate crystal form A. Firstly, the suspension competition test between […] B and G was set up at 5° C., room temperature and 50° C. in ACN and room temperature in EtOAc. The specific steps are as follows: 1) saturated solution of the free state was prepared in different solvent systems at corresponding temperatures; 2) the corresponding free crystal form sample was added into 0.5 mL of the saturated solution to form a suspension; 3) the mixture was magnetically stirred under corresponding temperature conditions; 4) after stirring for 1 to 5 days, the solid was separated for XRPD testing.
Therefore, a suspension competition test of stable anhydrous crystal form B at room temperature and hydrate form A with different water activities (aw=0/0.2/0.4/0.6/0.8/1.0) of ACN/H2O at room temperature was set up. […] Reference source not found.

[2] = Solid-state stability experiment (XRPD, HPLC); type: physicochemical; conditions: for Crystal form variation: XRPD
Method: The stability test in the high-performance liquid chromatography (IPLC) test used in the present disclosure is tested by an Agilent 1260 high-performance liquid chromatograph, and the analytical conditions are shown in Table 11.
In order to evaluate the solid stability of the free anhydrous crystal form B, an appropriate amount of the sample was respectively weighed, placed at 60° C. for 24 hours, and exposed at 25° C./60% RH and 40° C./75[…] for one week. The crystal changes of the solid samples placed under different conditions were tested by XRPD, and the chemical stability was evaluated by HPLC.

NaV1.8 = biological target: T1, NaV1.8 (Homo sapiens, UniProt Q9Y5Y9); experiment: Whole-cell patch-clamp, blocking activity on NaV1.8 channel current (CHO cell line stably expressing NaV1.8); type: cell-based; conditions: statement in words
T1 construct: expressed in transfected cells
Method: • 1. Test method: the patch-clamp technique was used to detect the effects of compound on the voltage-gated sodium channels (NaV) 1.1 to 1.8 subtype currents
• 1) the specific information of CHO cell line stably expressing NaV1.8 channel was as follows: SCN10A: NM_006514 • 2) Cells were cultured in HAM'S/F-12 medium containing 10% fetal bovine serum, 10 μg/mL Blasticidin, 200 μg/mL Hygromycin B and 100 μg/mL Zeocin at 37° C. and 5% carbon dioxide concentration. • 3) Cell passage: the old medium was removed and washed once with PBS, and then 1 mL of 0.25%-Trypsin-EDTA solution was added and incubated at 37° C. for 1.5 minutes. When the cells were detached from the bottom of the plate, 5 mL of 37° C. prewarmed complete medium was added. […]
Double-pulse mode was performed by two 0 mV depolarization test pulses (TP1 and TP2) for 50 ms. […] Data acquisition was repeated at 20 s intervals and the current peaks at two test pulses were measured.
While the NaV channel current recorded in the whole cell was stable, the drug was administered, and each drug concentration was applied for 5 minutes (or the current is stabilized) and then the next concentration was detected; each test compound was detected at multiple concentrations. […] The current detected by each cell in the external fluid without the compounds was used as its own control group. Multiple cells were detected independently and repeatedly. […]

[3] = Pharmacokinetics in rats, single intravenous injection or intragastric administration; type: in vivo, male Sprague Dawley rats
Method: In this experimental embodiment, in vivo pharmacokinetic evaluation was evaluated in rats by single intravenous injection or intragastric oral administration.
Experimental methods and conditions: male Sprague Dawley rats; all animals were fasted overnight, and were given a single dose of the compound to be tested at 1 mg/kg (intravenous injection, solvent 5% DMSO/10% Solutol/85% Saline) and 10 mg/kg (intragastric administration) respectively, at 5 min, 15 min, 30 min, 1 hr, 2 hr, 4 hr, 6 hr, 8 hr and 24 h after drug administration, blood was collected from the submandibular vein, about 0.20 mL per sample was collected, heparin sodium was used for anticoagulation, and then it was placed on ice after collection and centrifuged within 1 hour to separate the plasma for testing. The concentration of the drug in the plasma was measured by liquid tandem mass spectrometry (LC/MS/MS), and the measured concentration was used to calculate pharmacokinetic parameters.

[4] = 25° C./60% RH/exposure, one week
[5] = 40° C./75% RH/exposure, one week
[6] = statement in words, all test conditions

T1 sequence (Q9Y5Y9 whole entry): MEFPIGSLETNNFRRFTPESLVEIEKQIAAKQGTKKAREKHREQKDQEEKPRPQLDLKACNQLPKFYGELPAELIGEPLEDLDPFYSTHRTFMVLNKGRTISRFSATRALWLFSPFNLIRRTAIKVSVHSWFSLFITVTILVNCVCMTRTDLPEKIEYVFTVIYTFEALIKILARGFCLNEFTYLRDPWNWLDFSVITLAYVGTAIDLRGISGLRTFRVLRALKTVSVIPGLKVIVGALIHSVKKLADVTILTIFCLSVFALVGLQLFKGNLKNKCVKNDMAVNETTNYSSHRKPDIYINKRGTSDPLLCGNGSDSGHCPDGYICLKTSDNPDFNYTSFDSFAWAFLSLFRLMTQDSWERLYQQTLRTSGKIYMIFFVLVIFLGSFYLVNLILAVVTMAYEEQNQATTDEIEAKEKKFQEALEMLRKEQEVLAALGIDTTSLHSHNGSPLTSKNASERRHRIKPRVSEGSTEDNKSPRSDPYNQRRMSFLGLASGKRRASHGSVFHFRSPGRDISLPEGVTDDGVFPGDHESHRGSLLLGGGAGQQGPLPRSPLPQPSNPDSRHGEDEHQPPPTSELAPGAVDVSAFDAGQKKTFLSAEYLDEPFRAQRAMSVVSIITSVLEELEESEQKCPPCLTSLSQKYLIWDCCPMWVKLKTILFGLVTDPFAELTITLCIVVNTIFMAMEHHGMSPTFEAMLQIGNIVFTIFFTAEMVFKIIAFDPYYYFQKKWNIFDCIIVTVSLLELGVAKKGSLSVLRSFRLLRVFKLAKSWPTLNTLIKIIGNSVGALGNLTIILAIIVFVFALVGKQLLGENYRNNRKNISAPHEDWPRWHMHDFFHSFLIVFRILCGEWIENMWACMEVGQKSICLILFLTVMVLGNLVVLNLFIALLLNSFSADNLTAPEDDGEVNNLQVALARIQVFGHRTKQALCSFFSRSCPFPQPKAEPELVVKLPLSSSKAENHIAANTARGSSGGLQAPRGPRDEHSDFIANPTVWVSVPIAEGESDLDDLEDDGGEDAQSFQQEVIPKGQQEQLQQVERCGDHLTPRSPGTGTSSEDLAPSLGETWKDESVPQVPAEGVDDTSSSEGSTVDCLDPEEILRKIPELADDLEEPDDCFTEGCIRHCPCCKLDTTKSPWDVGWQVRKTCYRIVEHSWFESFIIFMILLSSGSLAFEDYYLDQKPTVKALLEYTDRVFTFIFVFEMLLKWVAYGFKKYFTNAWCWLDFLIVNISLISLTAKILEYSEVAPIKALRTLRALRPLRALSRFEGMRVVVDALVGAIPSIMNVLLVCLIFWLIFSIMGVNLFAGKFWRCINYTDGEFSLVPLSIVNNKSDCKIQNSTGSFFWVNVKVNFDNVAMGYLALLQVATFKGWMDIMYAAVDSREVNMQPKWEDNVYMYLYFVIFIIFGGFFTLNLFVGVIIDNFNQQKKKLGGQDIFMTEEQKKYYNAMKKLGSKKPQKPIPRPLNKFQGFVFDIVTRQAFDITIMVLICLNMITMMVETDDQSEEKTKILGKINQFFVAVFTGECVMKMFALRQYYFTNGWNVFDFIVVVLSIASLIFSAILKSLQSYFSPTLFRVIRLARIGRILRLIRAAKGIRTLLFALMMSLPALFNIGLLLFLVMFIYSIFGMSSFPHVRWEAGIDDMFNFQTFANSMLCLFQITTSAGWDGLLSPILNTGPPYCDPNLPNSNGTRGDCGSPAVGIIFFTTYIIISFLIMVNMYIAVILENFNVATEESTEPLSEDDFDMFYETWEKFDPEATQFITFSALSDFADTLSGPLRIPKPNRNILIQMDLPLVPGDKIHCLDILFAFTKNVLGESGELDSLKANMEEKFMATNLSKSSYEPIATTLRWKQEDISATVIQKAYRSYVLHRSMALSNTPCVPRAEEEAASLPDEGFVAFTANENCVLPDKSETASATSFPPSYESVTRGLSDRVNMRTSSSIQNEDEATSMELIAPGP

**Q.** For `O=C(Nc1ccc[n+]([O-])c1)c1cc(Cl)c(Cl)cc1Oc1ccc(OC(F)(F)F)cc1` [Crystal form B/G], which “crystal form obtained in suspension competition” value ([1]; ACN at 5° C., room temperature, 50° C. and EtOAc at room temperature) is on record?
**A.** only the free crystal form B was obtained

**Q.** And the “Competition test result (crystal form obtained)” value (“Competition test result” for short) ([1]; test 22-B1, ACN (aw to 0), 5° C.)?
**A.** Free crystal form B

**Q.** And the “Competition test result” value ([1]; test 22-B2, ACN (aw to 0), room temperature)?
**A.** Free crystal form B

**Q.** What about the “Competition test result” value ([1]; test 22-B3, ACN (aw to 0), 50° C.) of the same compound?
**A.** Free crystal form B

**Q.** And the “Competition test result” value ([1]; test 22-B4, EtOAc (aw to 0), room temperature)?
**A.** Free crystal form B

**Q.** Which Purity [2, 4] does the source give for `O=C(Nc1ccc[n+]([O-])c1)c1cc(Cl)c(Cl)cc1Oc1ccc(OC(F)(F)F)cc1` [Free crystal form B] here?
**A.** 99.90 area %

**Q.** And the “Relative to initial purity” value [2, 4]?
**A.** 99.99%

**Q.** What about the Crystal form variation [2, 4] of the same compound?
**A.** Constant

**Q.** What about the Purity [2, 5] of the same compound?
**A.** 99.90 area %

**Q.** And the “Relative to initial purity” value [2, 5]?
**A.** 99.99%

**Q.** And the Crystal form variation [2, 5]?
**A.** Constant

**Q.** What about the Purity ([2]; 60° C./closed, 24 hours) of the same compound?
**A.** 99.91 area %

**Q.** What about the “Relative to initial purity” value ([2]; 60° C./closed, 24 hours) of the same compound?
**A.** 100.00%

**Q.** And the Crystal form variation ([2]; 60° C./closed, 24 hours)?
**A.** Constant

**Q.** And the Purity ([2]; Start)?
**A.** 99.91 area %

**Q.** What about the “HPLC purity under the test conditions” value [2, 6] of the same compound?
**A.** not decreased obviously

**Q.** And the “crystal form change under the test conditions” value [2, 6]?
**A.** not changed

**Q.** What about the “stability and druggability compared with hydrate crystal form” value ([1]; conclusion in words) of the same compound?
**A.** better stability

**Q.** For `O=C(Nc1ccc[n+]([O-])c1)c1cc(Cl)c(Cl)cc1Oc1ccc(OC(F)(F)F)cc1` [Crystal form A/B], which “crystal form obtained in suspension competition” value ([1]; ACN/H2O, room temperature, aw=0 to 0.4) is on record?
**A.** anhydrous crystal form B was obtained

**Q.** What about the “crystal form obtained in suspension competition” value ([1]; ACN/H2O, room temperature, aw=0.6 to 1 (pure water)) of the same compound?
**A.** hydrate crystal form A was obtained

**Q.** And the “Competition test result” value ([1]; test 22-A1, ACN (aw to 0), room temperature)?
**A.** Free crystal form B

**Q.** What about the “Competition test result” value ([1]; test 22-A2, ACN/H2O (981:19, aw to 0.2), room temperature) of the same compound?
**A.** Free crystal form B

**Q.** What about the “Competition test result” value ([1]; test 22-A3, ACN/H2O (957:43, aw to 0.4), room temperature) of the same compound?
**A.** Free crystal form B

**Q.** What about the “Competition test result” value ([1]; test 22-A4, ACN/H2O (924:76, aw to 0.6), room temperature) of the same compound?
**A.** Free crystal form B

**Q.** What about the “Competition test result” value ([1]; test 22-A5, ACN/H2O (87:13, aw to 0.8), room temperature) of the same compound?
**A.** Free crystal form B

**Q.** What about the “Competition test result” value ([1]; test 22-A6, H2O (aw to 1.0), room temperature) of the same compound?
**A.** Free crystal form B

**Q.** For `O=C(Nc1ccc[n+]([O-])c1)c1cc(Cl)c(Cl)cc1Oc1ccc(OC(F)(F)F)cc1` [Compound of formula (I)], which “blocking effect on NaV1.8 channel activity” value (NaV1.8) is on record?
**A.** obvious blocking effect

**Q.** What about the F ([3]; rat, intragastric 10 mg/kg) of the same compound?
**A.** 72.59%

**Q.** And the “pharmacokinetic absorption in rats” value ([3]; statement in words)?
**A.** good pharmacokinetic absorption
